These results are taken from patent US8771680B2, “Topical co-enzyme Q10 formulations and methods of use” (University of Miami, priority 2004, dated 2014).

The conditions of series [1]: of cancer patients having progressive disease before treatment; cited from earlier work.
For series [2], the system named is skin cancer cells (SK-Mel28). The series is described as follows: Apoptosis assay (Annexin-VPE) in skin cancer cells. Format: cell-based, human. The conditions noted are these: culture of skin cancer cells. On the procedure:
(§1) Cell lines used in the assay were SK-Mel28 and nFIB. Cells (SK-Mel28 and nFIB) were seeded (5×10^4 cells/well) into wells containing either solely medium or medium with treatment and placed in an incubator at 37° C., 5% CO2, and under humidified conditions for 48 hours. Each condition was performed in duplicate and was subjected to the following protocol:
(§2) Apoptosis Analysis as Per Protocol of BD Pharmingen Annexin-VPE Protocol
(§3) Reagents include Annexin V-PE (BD Pharmingen, San Diego, Calif.), 7-AAD (BD Pharmingen, San Diego, Calif.), binding buffer (10×: 0.1 M Hepes/NaOH, 1.4 M NaCl, 25 mM CaCl2) [diluted to 1× (9 mL PBS and 1 mL binding buffer) for use in experiment] (BD Pharmingen, San Diego, Calif.), Trypsin-EDTA (Gibco, Grand Island, N.Y.), and desired Media.
(§4) Add 0.5 mL trypsin to each well, remove trypsin after approximately 10 seconds, and add 0.5 mL trypsin to each well. Place wells in an incubator, observe level of detachment under microscope after 4 minutes, and gently tap sides and bottom to aid in detachment. When cells detach, neutralize with 0.5 mL serum-supplemented medium. Transfer cell solution to centrifuge tubes, centrifuge cells at 2000 RPM for 5 minutes, aspirate supernatant, resuspend in 6 mL PBS, and split 6 mL into three centrifuge tubes (2 mL each). […]

Series [3] deals with human prostatic adenocarcinoma cell line (PC-3). The series is described as follows: Proliferation of prostatic adenocarcinoma cell line PC-3 in in vitro culture. Format: cell-based. On the procedure: (§5) Retrieve Q10 stock from −20° C. storage and weigh out approximately 4.4 mg. Transfer Q10 into a 25 mL centrifuge tube. Add 1 mL 2-propanol to centrifuge tube. Vortex and dip in hot water bath (55° C.) to promote dissolution. Add 9 mL of media to centrifuge tube. Vortex and dip in hot water bath (55° C.) if necessary to create a homogenous solution. […] Make serial dilutions to treatment concentrations.
(§6) After subculture (per subculturing cells protocol described above), pipet the desired volume suspension of cells to count (0.25-1 mL) into Coulter Counter Vial (Beckman, Inc.) using an automatic pipette. Insure that the Beckman Coulter® Z1 Cell and Particle Counter is clean by using Coulter CLENZ (Beckman, Inc., Fullerton, Calif.) to flush. Flush apparatus once with Isoton II Diluent. Add Isoton II Diluent to vial containing cells for a total volume of 10 mL. Use output mode of apparatus to count cells twice to ensure accuracy. Average counts together and calculate total cell number per volume.
(§7) Acclimate reagents to 37° C. in water bath. Make stock solution of Q10 as per protocol described above for creating a homogenous solution of Q10 in media. Perform serial dilutions to desired concentrations. Place 2 mL media into respective wells. Subculture flasks as per protocol described above for subculturing cells. […]

Series [4] has as its system human melanoma cell line (SKMEL28). The experiment in a line: Proliferation of melanoma cell line in in vitro culture (cell counting). Type of series: cell-based. The procedure: as §5, §6, §7
Series [5] has as its system human osteosarcoma cell line (143B). The series is described as follows: Proliferation of osteosarcoma cell line 143B in in vitro culture. Type of series: cell-based. The procedure:
as §5, §6, §7

Series [6] has as its system squamous carcinoma cells. The series is described as follows: Proliferation of squamous carcinoma cells in in vitro culture. Type of series: cell-based. The conditions noted are these: 48 hour in vitro culture. On the procedure:
as §5, §6, §7

Series [7] concerns human hepatocellular carcinoma cell line (Hep 3B). The series is described as follows: Proliferation of hepatocellular carcinoma cell line Hep 3B in in vitro culture. Format: cell-based. On the procedure:
as §5, §6, §7

Series [8] concerns human neonatal keratinocytes. The series is described as follows: Proliferation of neonatal keratinocytes in in vitro culture. Type of series: cell-based. The conditions noted are these: 48 hour in vitro culture. On the procedure:
as §5, §6, §7

Series [9] relates to breast adenocarcinoma cell line (MCF-7). The experiment in a line: Proliferation of breast adenocarcinoma cell line MCF-7 in in vitro culture. Format: cell-based. On the procedure: as §5, §6, §7
The subject of series [10] is human breast adenocarcinoma cell line (SK-BR-3). The experiment in a line: Proliferation of breast adenocarcinoma cell line SK-BR-3 in in vitro culture. Format: cell-based. The procedure: as §5, §6, §7
Series [11] deals with human prostatic adenocarcinoma cell line (PC-3). The series is described as follows: Apoptosis analysis by JC-1 stain (mitochondrial polarization, flow cytometry). Format: cell-based. The conditions noted are these: PC-3 cells, 0.2 mM Q10, 24 h. The procedure: FIG. 28 is a graph showing the effect of CoQ10 on mitochondrial polarization (an indicator of apoptosis) of a human prostatic adenocarcinoma cell line (PC-3) in a 24 hour in vitro culture. PC-3 cell cultures were treated with Q10 at 0.05, 0.1 and 0.2 mM concentrations for 24 h and then treated with JC-1, at 10 microgram/ml., for 30 min. Uptake and levels of green fluorescence was measured in a flow cytometer, FL1 (green fluor.).
Apoptosis was measured using a mitochondrial membrane dye JC-1, 5,5′,6,6′-tetrachloro-1,1′,3,3′-tetraethyl-benzimidazolylcarbocyanine chloride (Molecular Probe, Eugene, Oreg.). Treatments consisting of DMEM-F12 media supplemented with 1×PSA, 5% FBS and 0, 50, 100, and 200 μM concentrations of coenzyme Q10 were prepared in 60×15 mm tissue culture dishes (Costar-Cambride, Mass.). PC-3 cells were seeded at 500,000 cells per dish and incubated for 24 hours. The cells were trypsinized using 2 mL trypsin-EDTA and subjected to centrifugation at 2,500 rpm for 8 minutes. They were resuspended in 1 mL of Ham's F12 medium lacking serum and phenol red (Cascade Biologics, Inc-Portland, Oreg.) and promptly placed on ice. A 1 mg/ml stock solution of JC-1 was prepared using sterile DMSO and 10 μL was added to each cell suspension while gently vortexing. […] The samples were analyzed by flow cytometry for changes in uptake of fluorescent dye. […]
On the technique in general: In flow cytometry, cells or beads pass a laser one at a time.

The test system of series [12] is SK-MEL28 tumors. The series is described as follows: Effect of topical formulation of Coenzyme Q10 on SK-MEL28 tumors in mice. Type of series: in vivo. On the procedure: Subculture flasks as per the cell subculturing protocol described above. After aspirating supernatant, combine pellets from each flask diluted slightly with PBS with a 5 mL pipette. Dilute final cell suspension to contain approximately ten million cells per 100 μL. Transfer cell suspension to micro-centrifuge tubes (2 mL). Place in ice immediately and leave in ice until injected. Anesthetize mice via an intraperitoneal injection with 0.3 cc Aventin. Inoculate each animal subcutaneously with 0.1 cc cell suspension per site. Transfer any remaining cells into a 15 mL centrifuge tube. Dilute to 10 mL with medium. Centrifuge at 2500 RPM for 8 minutes. Aspirate supernatant. Add 10 mL media to centrifuge tube. Create a homogenous cell suspension by pipetting and vortexing. Seed cells in a T75 flask to ensure experimental cell viability.
Melanoma tumors were induced in mice by SK-MEL28 injection into the subcutaneous layer. The animal study consisted of both a control and treatment group each containing four mice. The mice were inoculated with two tumors and the graph of FIG. 14 represents the resulting mean mass for the tumors in each mouse. A topical formulation of Coenzyme Q10 (A 1.0% and 1.5% formulation was tested) was applied to the tumors in the treatment group daily for a period of 30 days. After which, the tumors were excised and the mass was determined. […]

Series [13] relates to human breast adenocarcinoma cell line (BT-20). The experiment in a line: Proliferation of breast adenocarcinoma cell line BT-20 in in vitro culture. Type of series: cell-based. The procedure: as §5, §6, §7
For series [14], the system named is human breast adenocarcinoma cell line (MDA-MB-468). The series is described as follows: Proliferation of breast adenocarcinoma cell line MDA-MB-468 in in vitro culture. Format: cell-based. The procedure: as §5, §6, §7
In series [15] the test system is human neonatal fibroblasts. The experiment in a line: Proliferation of neonatal fibroblasts in in vitro culture. Type of series: cell-based. The conditions noted are these: 48 hour in vitro culture. The procedure:
as §5, §6, §7

For series [16], the system named is normal cells (nFIB). The experiment in a line: Apoptosis assay (Annexin-VPE) in normal cells. Format: cell-based, human. Particulars: culture of normal cells. The procedure: as §1, §2, §3, §4

On to `NC(=O)c1nnn(Cc2cc(Cl)c(C(=O)c3ccc(Cl)cc3)c(Cl)c2)c1N` [CAI, carboxyamidotriazole], for which, in series [1], the disease stabilization is listed as 49%.
As to `COC1=C(OC)C(=O)C(C/C=C(\C)CC/C=C(\C)CC/C=C(\C)CC/C=C(\C)CC/C=C(\C)CC/C=C(\C)CC/C=C(\C)CC/C=C(\C)CC/C=C(\C)CCC=C(C)C)=C(C)C1=O` [CoQ10, Coenzyme Q10], the figures for the rate of apoptosis entry in series [2] and in series [16] were “increase the rate of apoptosis” and “but not normal cells”, respectively. Also, the proliferation result in series [3] (PC-3, 48 hour in vitro culture) is listed as “reduces the proliferation”; in [3] (PC-3, 72 hour in vitro culture), “reduces the proliferation”; in series [4] (SKMEL28, 36 hour in vitro culture), “reduces the proliferation”; in series [4] (SKMEL28, 48 hour in vitro culture), “reduces the proliferation”; in series [5] (48 hour in vitro culture), “reduces the proliferation”; in series [5] (72 hour in vitro culture) it was “reduces the proliferation”. Moreover, the proliferation entry is on record as “reduces the proliferation” in series [6]; “reduces the proliferation” in series [7] (48 hour in vitro culture); “reduces the proliferation” in series [7] (72 hour in vitro culture); “increases the proliferation” in [8]; “reduces the proliferation” in [9] (MCF-7, 48 hour in vitro culture); “reduces the proliferation” in series [9] (MCF-7, 72 hour in vitro culture). Besides, the proliferation result in series [10] (SK-BR-3, 48 hour in vitro culture) is listed as “reduces the proliferation”; in series [10] (SK-BR-3, 72 hour in vitro culture) it was “reduces the proliferation”; in series [13] (BT-20, 48 hour in vitro culture), “reduces the proliferation”; in [13] (BT-20, 72 hour in vitro culture), “reduces the proliferation”; in [14] (MDA-MB-468, 48 hour in vitro culture) it was “reduces the proliferation”; in series [14] (MDA-MB-468, 72 hour in vitro culture) it was “reduces the proliferation”. Also, the proliferation entry in series [15] is on record as “increases the proliferation”. Further, the “green fluorescence of JC-1 (mitochondrial polarization, an indicator of apoptosis)” value in series [11] was “significant increase”. Further, the “Average tumor mass decreased as compared to the control” value in series [12] (1.0% CoQ10 topically for 30 days) stood at 52.3%; in series [12] (1.5% CoQ10 topically for 30 days) it was 54.0%.
